From DBAASP
≈ marks a conversion by molar mass, not a printed value. Blank lines part the entries; values can stand above or below the compound they belong to.

Key:
Assay in all cases: ≥ marks a high value that may be exact or a test limit, other limits are often not marked, values filed in µg/mL are converted to µM
[1] = test system: Aspergillus flavus KCTC 9471
Trichosporon beigelii = test system: Trichosporon beigelii
Botrytis cinerea = test system: Botrytis cinerea
Escherichia coli = test system: Escherichia coli
Bacillus subtilis = test system: Bacillus subtilis
Saccharomyces cerevisiae = test system: Saccharomyces cerevisiae
[2] = test system: Aspergillus fumigatus KCTC 6145
[3] = test system: Listeria monocytogenes KCTC 3710
Staphylococcus aureus = test system: Staphylococcus aureus
[4] = test system: Escherichia coli O157:H7 ATCC 43895
[5] = test system: Candida albicans KCTC 7270
Pseudomonas aeruginosa = test system: Pseudomonas aeruginosa
Salmonella typhimurium = test system: Salmonella typhimurium
Fusarium verticillioides = test system: Fusarium verticillioides
[6] = test system: Staphylococcus epidermidis
Proteus vulgaris = test system: Proteus vulgaris
[7] = test system: Fusarium oxysporum f. sp. lycopersici ATCC 201829
[8] = test system: Erwinia amylovora PMV 6076
[9] = test system: Aspergillus niger CECT 2694
[10] = test system: Pseudomonas syringae EPS 94
[11] = test system: Xanthomonas vesicatoria 2133-2
[12] = test system: Penicillium expansum EPS 26
[13] = test system: Rhizopus stolonifer CECT 2344
Vibrio parahaemolyticus = test system: Vibrio parahaemolyticus
Vibrio fluvialis = test system: Vibrio fluvialis
Streptococcus pyogenes = test system: Streptococcus pyogenes
Vibrio alginolyticus = test system: Vibrio alginolyticus
Aeromonas hydrophila = test system: Aeromonas hydrophila
[14] = test system: Escherichia coli K-12 594
[15] = test system: Staphylococcus aureus ATCC 6538P
[16] = test system: Staphylococcus aureus SR1550
[17] = test system: Streptococcus sanguinis ATCC 49295
[18] = test system: Streptococcus mutans GS-5
[19] = test system: Streptococcus mutans UA159
[20] = test system: Streptococcus gordonii ATCC 10558
[21] = test system: Pseudomonas aeruginosa ATCC 27853
[22] = test system: Candida albicans ATCC 90028
[23] = test system: Acinetobacter baumannii ATCC 19606
[24] = test system: Cryptococcus neoformans ATCC 208821
Klebsiella pneumoniae = test system: Klebsiella pneumoniae
[25] = test system: Klebsiella pneumoniae ATCC BAA-2146
[26] = test system: Klebsiella pneumoniae ATCC 700603
[27] = test system: Escherichia coli ATCC 25922
[28] = test system: Klebsiella pneumoniae ATCC 13883
[29] = test system: Staphylococcus aureus ATCC 43300
[30] = test system: Bacillus subtilis ATCC 6051
Acinetobacter baumannii = test system: Acinetobacter baumannii

- MIC [1]: ≥ 50 µM
- MIC (Trichosporon beigelii): 1.56 µM (≈ 3.75 µg/mL)
- MIC (Botrytis cinerea): 6.25 µM (≈ 15 µg/mL)
- MIC (Escherichia coli): 3.13 µM (≈ 7.52 µg/mL)
- MIC (Bacillus subtilis): 1.56 µM (≈ 3.75 µg/mL)
- MIC (Saccharomyces cerevisiae): 25 µM (≈ 60.1 µg/mL)
- MIC [2]: ≥ 35.4 µM
- MIC [3]: 0.78 µM (≈ 1.87 µg/mL)
- MIC (Staphylococcus aureus): 3.13 µM (≈ 7.52 µg/mL)
- MIC [4]: 3.13 µM (≈ 7.52 µg/mL)
- MIC [5]: 12.5 µM (≈ 30 µg/mL)
- MIC (Pseudomonas aeruginosa): 3.13 µM (≈ 7.52 µg/mL)
- MIC (Salmonella typhimurium): 0.39 µM (≈ 0.937 µg/mL)
- MIC (Fusarium verticillioides): 12.5 µM (≈ 30 µg/mL)
- MIC [6]: 3.13 µM (≈ 7.52 µg/mL)
- MIC (Proteus vulgaris): 4.42 µM (≈ 10.6 µg/mL)
Compound: CC[C@H](C)[C@H](NC(=O)[C@H](CCCCN)NC(=O)[C@H](CO)NC(=O)[C@H](Cc1ccccc1)NC(=O)[C@H](CC(C)C)NC(=O)[C@H](CCCCN)NC(=O)[C@H](CCC(=O)O)NC(=O)[C@H](CC(C)C)NC(=O)[C@H](CCCN=C(N)N)NC(=O)[C@H](CCCCN)NC(=O)[C@H](Cc1ccccc1)NC(=O)[C@@H](NC(=O)[C@H](CCCCN)NC(=O)[C@H](CCCCN)NC(=O)[C@H](C)N)C(C)C)C(=O)N[C@@H](Cc1ccc(O)cc1)C(=O)N[C@@H](CC(N)=O)C(=O)N[C@@H](Cc1ccc(O)cc1)C(=O)N[C@@H](CCCCN)C(N)=O [AKKVFKRLEKLFSKIYNYK]

- MIC [7]: 0.424 µM (≈ 0.569 µg/mL)
- MIC [8]: 5.92 µM (≈ 7.94 µg/mL)
- MIC [9]: 22.4 µM (≈ 30 µg/mL)
- MIC [10]: 5.92 µM (≈ 7.94 µg/mL)
- MIC [11]: 11 µM (≈ 14.7 µg/mL)
- MIC [12]: ≥ 35.4 µM
- MIC [13]: ≥ 35.4 µM
Compound: CC[C@H](C)[C@H](NC(=O)[C@H](CCCCN)NC(=O)[C@H](CCCCN)NC(=O)[C@H](Cc1ccccc1)NC(=O)[C@H](CC(C)C)NC(=O)[C@H](CCCCN)NC(=O)[C@@H](N)CC(C)C)C(=O)N[C@@H](CC(C)C)C(=O)N[C@@H](CCCCN)C(=O)N[C@H](C(=O)N[C@@H](CC(C)C)C(N)=O)C(C)C [LKLFKKILKVL]

- MIC (Vibrio fluvialis): ≥ 132 µM
- MIC (Streptococcus pyogenes): ≥ 33 µM
- MIC (Vibrio alginolyticus): ≥ 132 µM
- MIC (Escherichia coli): 4.12 µM (≈ 7.8 µg/mL)
- MIC (Aeromonas hydrophila): 8.23 µM (≈ 15.6 µg/mL)
- MIC (Staphylococcus aureus): > 132 µM
Compound: CC[C@H](C)[C@H](NC(=O)[C@H](CC(N)=O)NC(=O)[C@H](CC(=O)O)NC(=O)[C@H](Cc1ccc(O)cc1)NC(=O)[C@@H](NC(=O)[C@H](CCCCN)NC(=O)[C@H](Cc1cnc[nH]1)NC(=O)[C@H](CC(C)C)NC(=O)[C@H](CC(C)C)NC(=O)[C@H](Cc1ccccc1)NC(=O)[C@H](CC(N)=O)NC(=O)[C@@H](N)C(C)C)[C@@H](C)CC)C(=O)N[C@@H](CCCN=C(N)N)C(=O)N[C@@H](Cc1ccc(O)cc1)C(=O)N[C@@H](CO)C(=O)O [VNFLLHKIYDNIRYS]
- MIC (Vibrio parahaemolyticus): ≥ 33 µM

- MIC [14]: 24.4 µM (≈ 35 µg/mL)
- MIC [15]: 1.39 µM (≈ 2 µg/mL)
- MIC [16]: 24.4 µM (≈ 35 µg/mL)
Compound: CC(C)C[C@H](NC(=O)[C@H](CCCN=C(N)N)NC(=O)[C@H](CC(C)C)NC(=O)[C@H](CC(C)C)NC(=O)[C@H](CC(C)C)NC(=O)[C@H](CC(C)C)NC(=O)[C@H](CC(C)C)NC(=O)[C@H](CCCN=C(N)N)NC(=O)[C@H](CC(C)C)NC(=O)[C@@H](N)CCCN=C(N)N)C(=O)N[C@@H](CCCN=C(N)N)C(N)=O [RLRLLLLLRLR]

- MIC [17]: ≥ 178 µM
- MIC [18]: ≥ 178 µM
- MIC [19]: ≥ 178 µM
- MIC [20]: ≥ 178 µM
Compound: CC(C)C[C@H](NC(=O)[C@H](CCCN=C(N)N)NC(=O)[C@H](Cc1ccccc1)NC(=O)[C@H](Cc1ccccc1)NC(=O)[C@@H](N)[C@@H](C)O)C(=O)N[C@@H](Cc1ccccc1)C(=O)N[C@@H](CC(N)=O)C(=O)N[C@@H](CCCN=C(N)N)C(=O)N[C@@H](CO)C(=O)N[C@@H](Cc1ccccc1)C(=O)N[C@H](C(=O)O)[C@@H](C)O [TFFRLFNRSFT]

- MIC [21]: 0.454 µM (≈ 0.999 µg/mL)
- MIC [22]: 3.63 µM (≈ 7.99 µg/mL)
- MIC [23]: 0.113 µM (≈ 0.25 µg/mL)
- MIC [24]: 0.454 µM (≈ 0.999 µg/mL)
- MIC (Klebsiella pneumoniae): 7.26 µM (≈ 16 µg/mL)
- MIC [25]: 0.454 µM (≈ 0.999 µg/mL)
- MIC [26]: 0.907 µM (≈ 2 µg/mL)
- MIC [27]: 0.0567 µM (≈ 0.125 µg/mL)
- MIC [28]: 0.113 µM (≈ 0.25 µg/mL)
- MIC [29]: 0.907 µM (≈ 2 µg/mL)
- MIC (Pseudomonas aeruginosa): 0.907 µM (≈ 2 µg/mL)
- MIC [30]: 0.0567 µM (≈ 0.125 µg/mL)
- MIC (Acinetobacter baumannii): 0.113 µM (≈ 0.25 µg/mL)
Compound: CC[C@H](C)[C@@H]1NC(=O)CNC(=O)[C@H](CCCN=C(N)N)NC(=O)[C@H](Cc2ccc(O)cc2)NC(=O)[C@H](C)NC(=O)[C@H](C(C)C)NC(=O)[C@H](CCCN=C(N)N)NC(=O)[C@H](Cc2ccccc2)NC(=O)[C@@H](NC(=O)[C@H](Cc2c[nH]c3ccccc23)NC(=O)[C@@H](N)CCCCN)CSSC[C@@H](C(=O)N[C@@H](CCCN=C(N)N)C(=O)O)NC(=O)[C@H](CCCN=C(N)N)NC(=O)[C@H](CCCN=C(N)N)NC(=O)[C@H](Cc2ccc(O)cc2)NC(=O)[C@H](C)NC1=O [KWCFRVAYRGIAYRRCR]
